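How tested: cells in 96-well plates exposed to compound for 48 hours at five concentrations. GI50: concentration for 50% inhibition of growth. TGI marks complete inhibition of growth.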
Legend:
Experiment in all cases: NCI tumour cell line growth inhibition, 48 h
BT-549 breast = test system: BT-549 breast
COLO 205 colon = test system: COLO 205 colon
DU-145 prostate = test system: DU-145 prostate
HCC-2998 colon = test system: HCC-2998 colon
KM12 colon = test system: KM12 colon
NCI-H226 lung = test system: NCI-H226 lung
SNB-19 CNS = test system: SNB-19 CNS
SR leukemia = test system: SR leukemia
UACC-257 melanoma = test system: UACC-257 melanoma
UACC-62 melanoma = test system: UACC-62 melanoma

Row | SMILES | TGI (BT-549 breast) | TGI (COLO 205 colon) | TGI (DU-145 prostate) | TGI (HCC-2998 colon) | TGI (KM12 colon) | TGI (NCI-H226 lung) | TGI (SNB-19 CNS) | TGI (SR leukemia) | TGI (UACC-257 melanoma) | TGI (UACC-62 melanoma) | GI50 (BT-549 breast) | GI50 (COLO 205 colon) | GI50 (DU-145 prostate) | GI50 (HCC-2998 colon) | GI50 (KM12 colon) | GI50 (NCI-H226 lung) | GI50 (SNB-19 CNS) | GI50 (SR leukemia) | GI50 (UACC-257 melanoma) | GI50 (UACC-62 melanoma)
1 | COC1C(OC(=O)c2ccc(C)[nH]2)C(O)C(Oc2ccc3c(O)c(NC(=O)c4ccc(O)c(CC=C(C)C)c4)c(=O)oc3c2Cl)OC1(C)C (stereo not given) | 42.5 µM | 52.8 µM | 75.4 µM | 33.2 µM | 26.1 µM | 36.7 µM | 30 µM | 56.9 µM | > 100 µM | 32.9 µM |  |  |  |  |  |  |  |  |  | 
2 | O=c1c(I)c[nH]cc1I | > 100 µM | > 100 µM | > 100 µM | > 100 µM | > 100 µM | > 100 µM | > 100 µM | > 100 µM | > 100 µM | > 100 µM | > 100 µM | > 100 µM | > 100 µM | > 100 µM | > 100 µM | > 100 µM | > 100 µM | > 100 µM | > 100 µM | > 100 µM
3 | Cc1cc(NC(=O)NCc2ccc(N3C(N)=NC(N)=NC3(C)C)cc2)ccc1S(=O)(=O)F | > 67.6 µM | > 100 µM | > 100 µM | > 100 µM | > 100 µM | > 100 µM | > 100 µM | > 43.5 µM | > 100 µM | > 100 µM | 4.97 µM | 2.77 µM | 1.35 µM | 1.96 µM | 0.665 µM | > 61.2 µM | 11.7 µM | 0.502 µM | 33.6 µM | 0.998 µM
4 | CC(C)(Oc1ccc(-c2cccc3ccccc23)cc1)C(=O)O | > 100 µM | > 100 µM | > 100 µM | > 100 µM | > 100 µM | > 100 µM | > 100 µM | > 100 µM | > 100 µM | > 100 µM |  |  |  |  |  |  |  |  |  | 
5 | Nc1nc(SCc2ccccc2CCl)c2[nH]cnc2n1 | 29.6 µM | 36.1 µM | 41.7 µM | 33.3 µM | 28.1 µM | 34.4 µM | 35.5 µM | > 100 µM | 32.9 µM | 30.1 µM | 13.7 µM | 16.2 µM | 16.3 µM | 18.8 µM | 14.8 µM | 17.1 µM | 15.8 µM | 24.8 µM | 14.5 µM | 14.3 µM
6 | CCN(CC)c1ccc(/C=N/NC(=O)Cc2ccc(Nc3ccnc(C(F)(F)F)c3)cc2)c(O)c1 | > 29.2 µM | > 100 µM | > 100 µM | > 100 µM | > 100 µM | > 23.5 µM | > 26.6 µM | > 19.9 µM | > 29.2 µM | 7.86 µM | 0.965 µM | 1.24 µM | 0.828 µM | 1.17 µM | 0.826 µM | 0.699 µM | 0.588 µM | 0.285 µM | 1.82 µM | 0.48 µM
7 | O=c1[nH]c2cc(Cl)ccc2nc1/C(=N\Nc1ccccc1)C(O)c1ccc2c(c1)OCO2 (stereo not given) | > 100 µM | > 100 µM | > 100 µM | > 100 µM | > 100 µM | > 100 µM | > 100 µM | > 100 µM | > 100 µM | > 100 µM |  |  |  |  |  |  |  |  |  | 
